{"source": "patent US20200255436A1", "about": "“CORTICOTROPIN RELEASING FACTOR RECEPTOR ANTAGONISTS” (Spruce Biosciences, Inc., priority 2019, published 2020)", "key": {"[1]": {"assay": "Study 1: single escalating oral dose pharmacokinetics, fed and fasted", "assay_type": "in vivo, human", "settings": "for Cmax / Tmax / AUC(0-inf) / AUC(0-t) / Vd/F / half-life: human, plasma, po; for AUC(0-t): read-out: AUC0-tlast", "method": "Study 1 was the first-in-human study that investigated the safety, tolerability, and PK of single-escalating doses of Compound 1, given orally, to healthy adult subjects. […] The data from this study were used for the selection of doses for Study 2.\nIn Study 1, Compound 1 was administered to healthy adult subjects as a single PO dose of 2, 10, 50, 150, 400, or 800 mg in the fed state and 150 mg in the fasted state. Absorption occurred moderately late, achieving peak Cmax between 4 to 6 hours following dosing in the fed state.\nWhen Compound 1 was given in the fed state, median time to reach maximum plasma concentration (Tmax) occurred between 4 and 6 hours.\nAs part of this single-dose escalation study, a food effect PK investigation was performed to examine Compound 1 exposures in both the fed and fasted states at the 150-mg dose level. A total of 6 subjects were administered 150 mg Compound 1 in each of these 2 dosing groups. Of these 6 subjects, 4 subjects received Compound 1 at the same dose in both fed and fasted states. […] Table 2 provides a summary of the PK parameters at the 150-mg dose level under both fed and fasted state conditions.\nPK parameters AUC0-∞ and Cmax were analyzed separately for dose proportionality for Compound 1 from 50 to 800 mg when administered in the fed state. […] Dose proportionality across administered doses in the fed state could not be concluded on the basis of AUC0-∞ or Cmax."}, "[2]": {"assay": "Phase 2 study in adults with classic CAH: safety", "assay_type": "in vivo, human", "settings": "patients with CAH, 5-fold range of doses", "text": "Cohort A of the Phase 2 Study includes a 6-week, multiple-dose, dose escalation study of Compound 1 for the treatment of adults with classic CAH. After screening, eligible patients will be enrolled into a 6-week treatment period followed by a 4-week washout/safety follow-up period.\nThis cohort will be conducted in approximately 9 patients, who will receive Compound 1 daily for up to 6 weeks. Compound 1 will be administered as an oral daily dose. Patients will undergo titration of Compound 1 through three escalating dosage strengths at 2-week intervals. Patients will have overnight PK/PD assessments performed at baseline, which include an pre-dose overnight assessment and a post-dose overnight assessment for PK/PD following administration of the first dose. At the end of each 2-week dosing period, patients will return for single overnight visits for steady-state PK/PD assessments. A follow-up outpatient visit will occur 30 days after their last dose. Upon completion of the initial cohort (Cohort A), the study will proceed to a multiple ascending dose (MAD) design with up to 3 sequential cohorts (Cohorts B, C, and D) to further evaluate the safety, PK, and PD of various SPROO1 dosing regimens and to identify an optimal dose regimen. […]\n• 1. […] To assess the efficacy of Compound 1 in subjects with classic CAH as measured by percent and absolute change in 17-OHP compared to baseline."}, "[3]": {"settings": "50 mg, 50 mg single oral dose, fed, geometric mean"}, "[4]": {"settings": "150 mg, 150 mg single oral dose, fasted, geometric mean"}, "[5]": {"settings": "150 mg, 150 mg single oral dose, fed, geometric mean"}, "[6]": {"settings": "400 mg, 400 mg single oral dose, fed, geometric mean"}, "[7]": {"settings": "800 mg, 800 mg single oral dose, fed, geometric mean"}}, "note": "Where two headings read alike, the source gives them in different places.", "data": [{"smiles": "CCC(CC)c1cc(C)nc2c(-c3sc(N4CCOCC4)nc3Cl)c(C)nn12", "note": "[Compound 1, 4-(4-chloro-5-(2,5-dimethyl-7-(pentan-3-yl)pyrazolo[1,5-a]pyrimidin-3-yl)thiazol-2-yl)morpholine]", "values": [{"measurement": "CL/F", "setting": "[1]; 50 mg single oral dose, fed, geometric mean", "result": 302, "unit": "L/h"}, {"measurement": "CL/F", "setting": "[1]; 150 mg single oral dose, fasted, geometric mean", "result": 454, "unit": "L/h"}, {"measurement": "CL/F", "setting": "[1]; 150 mg single oral dose, fed, geometric mean", "result": 157, "unit": "L/h"}, {"measurement": "CL/F", "setting": "[1]; 400 mg single oral dose, fed, geometric mean", "result": 155, "unit": "L/h"}, {"measurement": "CL/F", "setting": "[1]; 800 mg single oral dose, fed, geometric mean", "result": 165, "unit": "L/h"}, {"measurement": "AUC0-∞ increase for every doubling of dose relative to dose proportionality", "setting": "[1]; 50 to 800 mg, fed state", "result": 1.74, "unit": "times"}, {"measurement": "mean AUC0-∞, fed state relative to fasted state", "setting": "[1]; 150-mg single dose", "result": "approximately 3 fold"}, {"measurement": "mean Cmax, fed state relative to fasted state", "setting": "[1]; 150-mg single dose", "result": "~11", "unit": "fold"}, {"measurement": "Cmax", "setting": "[1]; 2 mg, 2 mg single oral dose, fed, geometric mean", "result": 0.867, "unit": "ng/mL"}, {"measurement": "Tmax", "setting": "[1]; 2 mg, 2 mg single oral dose, fed, median, read-out: Tmax", "result": 6, "unit": "h"}, {"measurement": "Cmax", "setting": "[1]; 10 mg, 10 mg single oral dose, fed, geometric mean", "result": 3.01, "unit": "ng/mL"}, {"measurement": "Tmax", "setting": "[1]; 10 mg, 10 mg single oral dose, fed, median, read-out: Tmax", "result": 4, "unit": "h"}, {"measurement": "AUC(0-inf)", "setting": "[1]; [3]", "result": 165, "unit": "ng·h/mL"}, {"measurement": "Cmax", "setting": "[1]; [3]", "result": 19.5, "unit": "ng/mL"}, {"measurement": "AUC(0-t)", "setting": "[1]; [3]", "result": 152, "unit": "ng·h/mL"}, {"measurement": "Vd/F", "setting": "[1]; 50 mg, 50 mg single oral dose, fed, geometric mean, read-out: VSS/F", "result": 8080, "unit": "L"}, {"measurement": "Vd/F", "setting": "[1]; 50 mg, 50 mg single oral dose, fed, geometric mean, read-out: VZ/F", "result": 13500, "unit": "L"}, {"measurement": "half-life", "setting": "[1]; 50 mg, 50 mg single oral dose, fed, geometric mean, read-out: t1/2 (converted)", "result": 31, "unit": "h"}, {"measurement": "Tmax", "setting": "[1]; 50 mg, 50 mg single oral dose, fed, median, read-out: Tmax", "result": 4, "unit": "h"}, {"measurement": "AUC(0-inf)", "setting": "[1]; [4]", "result": 331, "unit": "ng·h/mL"}, {"measurement": "Cmax", "setting": "[1]; [4]", "result": 8.22, "unit": "ng/mL"}, {"measurement": "AUC(0-t)", "setting": "[1]; [4]", "result": 288, "unit": "ng·h/mL"}, {"measurement": "Vd/F", "setting": "[1]; 150 mg, 150 mg single oral dose, fasted, geometric mean, read-out: VSS/F", "result": 25200, "unit": "L"}, {"measurement": "Vd/F", "setting": "[1]; 150 mg, 150 mg single oral dose, fasted, geometric mean, read-out: VZ/F", "result": 25100, "unit": "L"}, {"measurement": "half-life", "setting": "[1]; 150 mg, 150 mg single oral dose, fasted, geometric mean, read-out: t1/2 (converted)", "result": 38.4, "unit": "h"}, {"measurement": "Tmax", "setting": "[1]; 150 mg, 150 mg single oral dose, fasted, median, read-out: Tmax", "result": 10.1, "unit": "h"}, {"measurement": "AUC(0-inf)", "setting": "[1]; [5]", "result": 956, "unit": "ng·h/mL"}, {"measurement": "Cmax", "setting": "[1]; [5]", "result": 93.4, "unit": "ng/mL"}, {"measurement": "AUC(0-t)", "setting": "[1]; [5]", "result": 891, "unit": "ng·h/mL"}, {"measurement": "Vd/F", "setting": "[1]; 150 mg, 150 mg single oral dose, fed, geometric mean, read-out: VSS/F", "result": 4600, "unit": "L"}, {"measurement": "Vd/F", "setting": "[1]; 150 mg, 150 mg single oral dose, fed, geometric mean, read-out: VZ/F", "result": 6620, "unit": "L"}, {"measurement": "half-life", "setting": "[1]; 150 mg, 150 mg single oral dose, fed, geometric mean, read-out: t1/2 (converted)", "result": 29.2, "unit": "h"}, {"measurement": "Tmax", "setting": "[1]; 150 mg, 150 mg single oral dose, fed, median, read-out: Tmax", "result": 4, "unit": "h"}, {"measurement": "AUC(0-inf)", "setting": "[1]; [6]", "result": 2580, "unit": "ng·h/mL"}, {"measurement": "Cmax", "setting": "[1]; [6]", "result": 207, "unit": "ng/mL"}, {"measurement": "AUC(0-t)", "setting": "[1]; [6]", "result": 2300, "unit": "ng·h/mL"}, {"measurement": "Vd/F", "setting": "[1]; 400 mg, 400 mg single oral dose, fed, geometric mean, read-out: VSS/F", "result": 6580, "unit": "L"}, {"measurement": "Vd/F", "setting": "[1]; 400 mg, 400 mg single oral dose, fed, geometric mean, read-out: VZ/F", "result": 9890, "unit": "L"}, {"measurement": "half-life", "setting": "[1]; 400 mg, 400 mg single oral dose, fed, geometric mean, read-out: t1/2 (converted)", "result": 44.2, "unit": "h"}, {"measurement": "Tmax", "setting": "[1]; 400 mg, 400 mg single oral dose, fed, median, read-out: Tmax", "result": 4, "unit": "h"}, {"measurement": "AUC(0-inf)", "setting": "[1]; [7]", "result": 4850, "unit": "ng·h/mL"}, {"measurement": "Cmax", "setting": "[1]; [7]", "result": 382, "unit": "ng/mL"}, {"measurement": "AUC(0-t)", "setting": "[1]; [7]", "result": 4390, "unit": "ng·h/mL"}, {"measurement": "Vd/F", "setting": "[1]; 800 mg, 800 mg single oral dose, fed, geometric mean, read-out: VSS/F", "result": 6820, "unit": "L"}, {"measurement": "Vd/F", "setting": "[1]; 800 mg, 800 mg single oral dose, fed, geometric mean, read-out: VZ/F", "result": 9970, "unit": "L"}, {"measurement": "half-life", "setting": "[1]; 800 mg, 800 mg single oral dose, fed, geometric mean, read-out: t1/2 (converted)", "result": 41.9, "unit": "h"}, {"measurement": "Tmax", "setting": "[1]; 800 mg, 800 mg single oral dose, fed, median, read-out: Tmax", "result": 6, "unit": "h"}, {"measurement": "half-life", "setting": "[1]; after a single PO dose (fed and fasted state), across dose levels, read-out: Mean half-life (t1/2)", "result": "31 to 44", "unit": "h"}, {"measurement": "Tmax", "setting": "[1]; single oral doses 2-800 mg, fed state, read-out: median time to reach maximum plasma concentration (Tmax)", "result": "4 to 6", "unit": "h"}, {"measurement": "tolerability", "setting": "[2]", "result": "generally well-tolerated"}]}]}
